Test results taken from publication PMC7415757, “Monocrotaline-induced liver toxicity in rat predicted by a combined in vitro physiologically based kinetic modeling approach” (Archives of Toxicology, 2020).

What was measured:
primary rat hepatocytes = assay: WST-1 cytotoxicity assay with primary rat hepatocytes; assay type: cell-based, rat (Sprague–Dawley)
Procedure: The monocrotaline-induced liver toxicity was tested in vitro using the WST-1 assay which measures the formazan formation by the metabolically active cells from WST-1. Pooled cryopreserved plateable male rat (Sprague–Dawley) hepatocytes (RTCP10™) were thawed and seeded in accordance with the manufacturer’s protocol. Briefly, cells were seeded in 96-well plates (Greiner bio-one, Alphen aan den Rijn, The Netherlands) at a concentration of 5 × 10^5 cells/ml to give 1.25 × 10^4 cells/well and incubated at 37 °C, 5% CO2 in a humidified atmosphere for 6 h to allow cell adherence. […] The solvent DMSO (0.5% (v/v) final concentration in exposure medium) was used as a negative control and triton X (final concentration 1% (v/v) in exposure medium) served as a positive control in all cytotoxicity assays. After exposure for 24 h, 5 μl (1:20 dilution) WST-1 reagent was added to each well and plates were incubated for an additional 1 h. Then, the plate was shaken at 1000 rpm for 1 min, and absorbance was measured at 440 nm (background absorbance at 620 nm was subtracted) using a SpectraMax M2 (Molecular Devices, Sunnyvale, USA).
Data are presented as mean values ± SE from three independent experiments with three different batches of rat hepatocytes. The cell viability was expressed as percentage of the solvent control, with the solvent control set at 100%. The obtained concentration–response curves for hepatotoxicity were fitted with a symmetrical sigmoidal model (Hill slope) which was further used to derive IC50 values using log [inhibitor] vs. normalized response using GraphPad Prism software (version 5.00 for Windows, GraphPad software, San Diego, USA).

HepaRG cells = tested on: HepaRG cells; set-up: method as in Louisse et al. ([2019]); settings: 24 h exposure; ref Louisse et al. ([2019]); cited from earlier work

## C[C@H]1C(=O)O[C@@H]2CCN3CC=C(COC(=O)[C@](C)(O)[C@]1(C)O)[C@H]23 [Monocrotaline]
Primary rat hepatocytes; Rattus norvegicus, Hepatocyte, 24 h exposure, serum-free medium, WST-1, read-out: IC50 cell viability
  IC50: 225 µM
Primary rat hepatocytes; highest concentration 600 µM, 24 h
  decrease in cell viability: over 60%
HepaRG cells
  cytotoxicity in HepaRG cells: did not exhibit cytotoxicity
